Entries after “also recorded” stand apart in the source; their conditions may differ. Activity calls are given as the source filed them. No rule for the calls is given here.
Test system: CCRIS mutagenicity, Ames/micronucleus/aberration tests
Assay: CCRIS mutagenicity studies
[1] = Test System: AMES SALMONELLA TYPHIMURIUM, Strain/Indicator: TA98, Metabolic Activation: NONE, Method: STANDARD PLATE
[2] = Test System: AMES SALMONELLA TYPHIMURIUM, Strain/Indicator: TA100, Metabolic Activation: NONE, Method: STANDARD PLATE
[3] = Test System: AMES SALMONELLA TYPHIMURIUM, Strain/Indicator: TA100, Metabolic Activation: RAT, LIVER, S-9, AROCLOR 1254, Method: STANDARD PLATE

CC(=O)Nc1cccc2c1-c1ccccc1C2
mutagenic call (Test System: AMES SALMONELLA TYPHIMURIUM, Strain/Indicator: TA98, Metabolic Activation: HUMAN, RED BLOOD CELL, CYTOSOL, Method: PREINCUBATION): inactive; negative | mutagenic call (Test System: AMES SALMONELLA TYPHIMURIUM, Strain/Indicator: TA1538, Metabolic Activation: RAT, LIVER, CYTOSOL, 4-ACETYLAMINOFLUORENE, Method: STANDARD PLATE): inactive; negative | mutagenic call (Test System: AMES SALMONELLA TYPHIMURIUM, Strain/Indicator: TA1538, Metabolic Activation: RAT, LIVER, CYTOSOL, AROCLOR 1254, Method: STANDARD PLATE): active; positive | mutagenic call (Test System: AMES SALMONELLA TYPHIMURIUM, Strain/Indicator: TA1538, Metabolic Activation: RAT, LIVER, CYTOSOL, Method: STANDARD PLATE): inactive; negative | mutagenic call (Test System: AMES SALMONELLA TYPHIMURIUM, Strain/Indicator: TA1538, Metabolic Activation: RAT, LIVER, MICROSOMES, 4-ACETYLAMINOFLUORENE, Method: STANDARD PLATE): active; positive | mutagenic call (Test System: AMES SALMONELLA TYPHIMURIUM, Strain/Indicator: TA1538, Metabolic Activation: RAT, LIVER, MICROSOMES, AROCLOR 1254, Method: STANDARD PLATE): active; positive | mutagenic call (Test System: AMES SALMONELLA TYPHIMURIUM, Strain/Indicator: TA1538, Metabolic Activation: RAT, LIVER, MICROSOMES, Method: STANDARD PLATE): inactive; negative | mutagenic call (Test System: AMES SALMONELLA TYPHIMURIUM, Strain/Indicator: TA1538, Metabolic Activation: RAT, LIVER, S-9, PHENOBARBITAL, Method: STANDARD PLATE): active; positive | mutagenic call (Test System: E. COLI, Strain/Indicator: WP2 UVRA, Metabolic Activation: HAMSTER, LIVER, S-9, AROCLOR 1254, Method: STANDARD PLATE): inactive; negative | mutagenic call (Test System: E. COLI, Strain/Indicator: WP2 UVRA, Metabolic Activation: HAMSTER, LIVER, S-9, Method: STANDARD PLATE): inactive; negative | mutagenic call (Test System: E. COLI, Strain/Indicator: WP2 UVRA, Metabolic Activation: MOUSE, LIVER, S-9, AROCLOR 1254, Method: STANDARD PLATE): inactive; negative | mutagenic call (Test System: E. COLI, Strain/Indicator: WP2 UVRA, Metabolic Activation: MOUSE, LIVER, S-9, Method: STANDARD PLATE): inactive; negative | mutagenic call (Test System: E. COLI, Strain/Indicator: WP2 UVRA, Metabolic Activation: NONE, Method: STANDARD PLATE): inactive; negative | mutagenic call (Test System: E. COLI, Strain/Indicator: WP2 UVRA, Metabolic Activation: RAT, LIVER, S-9, AROCLOR 1254, Method: STANDARD PLATE): inactive; negative | mutagenic call (Test System: E. COLI, Strain/Indicator: WP2 UVRA, Metabolic Activation: RAT, LIVER, S-9, Method: STANDARD PLATE): inactive; negative | mutagenic call (Test System: MOUSE LYMPHOMA, Strain/Indicator: L5178Y (TK+/TK-), Metabolic Activation: NONE, Method: SUSPENSION/PLATE): inactive; negative | mutagenic call (Test System: UDS, Strain/Indicator: HEPG2/THYMIDINE INCORPORATION, Metabolic Activation: NONE, Method: AUTORADIOGRAPHY): inactive; negative

COc1cc(C[C@@H]2NCCc3cc(O)c(O)cc32)cc(OC)c1OC
mutagenic call [1]: inactive; negative | mutagenic call (Test System: AMES SALMONELLA TYPHIMURIUM, Strain/Indicator: TA98, Metabolic Activation: RAT, LIVER, S-9, AROCLOR 1254, Method: STANDARD PLATE): inactive; negative | mutagenic call [2]: inactive; negative | mutagenic call [3]: inactive; negative | mutagenic call (Test System: AMES SALMONELLA TYPHIMURIUM, Strain/Indicator: TA1535, Metabolic Activation: NONE, Method: STANDARD PLATE): inactive; negative | mutagenic call (Test System: AMES SALMONELLA TYPHIMURIUM, Strain/Indicator: TA1535, Metabolic Activation: RAT, LIVER, S-9, AROCLOR 1254, Method: STANDARD PLATE): inactive; negative | mutagenic call (Test System: AMES SALMONELLA TYPHIMURIUM, Strain/Indicator: TA1537, Metabolic Activation: NONE, Method: STANDARD PLATE): inactive; negative | mutagenic call (Test System: AMES SALMONELLA TYPHIMURIUM, Strain/Indicator: TA1537, Metabolic Activation: RAT, LIVER, S-9, AROCLOR 1254, Method: STANDARD PLATE): inactive; negative

BrCc1ccc(CBr)cc1
mutagenic call [1]: inactive; negative | mutagenic call [2]: inactive; negative

C[C@@H]1C[C@@H]2c3cccc4[nH]cc(c34)C[C@H]2N(C)C1
mutagenic call [3]: active; positive

[S]1[S][SbH][S][S][SbH]1
mutagenic call (Test System: CHINESE HAMSTER OVARY, Strain/Indicator: CHO (HGPRT)/6-THIOGUANINE, Metabolic Activation: NONE): inactive; negative | mutagenic call (Test System: CHINESE HAMSTER OVARY, Strain/Indicator: CHO (HGPRT)/6-THIOGUANINE, Metabolic Activation: RAT, LIVER, S-9, AROCLOR 1254): inactive; negative

Clc1ccc(C(Cl)c2ccccn2)cc1 (configuration not stated)
mutagenic call (End Point: IN VITRO CHROMOSOMAL ABERRATIONS, Test System: CHL CELLS, Metabolic Activation: NONE): inactive; negative; test chemical precipitated at 0.2 mg/ml; toxic at 0.3 mg/ml (metaphase; also recorded: active; positive (structural changes); 0.30 mg/ml was toxic; metaphase cell division not | mutagenic call (End Point: IN VITRO CHROMOSOMAL ABERRATIONS, Test System: CHL CELLS, Metabolic Activation: RAT, LIVER, S-9, SODIUM PHENOBARBITAL AND 5,6-BENZOFLAVONE): active; positive (structural changes); test chemical precipitated at 2 highest of 4 dose

— PubChem BioAssay AID1259407 (Chemical Carcinogenesis Research Information System (CCRIS), 2018)
